Legend:
Sprague Dawley rats = experiment: IV infused EP3 antagonists on circulating insulin and glucose in the sulprostone infusion IVGTT model; format: in vivo, rat; settings: SD rats, IV bolus plus infusion at 7×Ki and 10×Ki (targeted)
Text: Biological Example 3—IV Infused EP3 Antagonists on Circulating Insulin and Glucose in the Sulprostone Infusion IVGTT Model
Jugular vein and carotid artery cannulated male Sprague Dawley rats (˜250 g, available from Charles River) were housed one rat per suspended cage in a temperature-controlled room with 12-hour light/dark cycle. The rats were allowed ad libitum access to water and maintained on a regular diet. Animals were acclimated for minimum 5 days prior to the start of the experiment. Experimental procedures were carried out in accordance with institutional standards for animal care and were approved by the institute's animal care and use committee.
A blood sample for insulin and blood chemistry was collected at 20 min (t=−20) prior to the start of dosing with sulprostone and/or test compound (EP3 antagonist). […]
Blood samples from all animals were collected into Heparin treated tubes. Background was measured via a glucometer at the 0 and 2 min time points to ensure that the animal received the glucose bolus. Plasma insulin was measured via a Meso Scale Discovery metabolic assay (available from Meso Scale). Plasma glucose, free fatty acid (FFA), triglycerides, cholesterol and ketones were measured on an OLYMPUS AU400E chemistry analyzer. Observations on animal health were recorded throughout the procedure. […]

EP3 receptor [1] = target: T1, EP3 receptor (Homo sapiens, UniProt P43115); experiment: CHO cell cAMP assay (forskolin and sulprostone stimulated, HTRF); format: cell-based; settings: CHO cells; sulprostone 700 nM (EC80) and FSK 2 μM (EC70), 37° C. for 30 minutes; read-out: CHO_cAMP IC50
T1 construct: purchased Millipore HTS092M
T1 sequence (P43115 1-390): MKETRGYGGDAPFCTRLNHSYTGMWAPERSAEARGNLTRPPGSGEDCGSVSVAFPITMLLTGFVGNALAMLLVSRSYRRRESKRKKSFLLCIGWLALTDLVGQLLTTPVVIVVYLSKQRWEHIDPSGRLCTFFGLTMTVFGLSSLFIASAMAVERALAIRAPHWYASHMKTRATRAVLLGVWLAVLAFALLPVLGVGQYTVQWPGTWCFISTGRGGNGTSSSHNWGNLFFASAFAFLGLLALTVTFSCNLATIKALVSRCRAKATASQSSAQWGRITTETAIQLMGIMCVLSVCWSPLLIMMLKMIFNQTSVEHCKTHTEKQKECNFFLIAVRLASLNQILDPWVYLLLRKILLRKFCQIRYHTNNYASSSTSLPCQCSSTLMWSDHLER

EP3 receptor [2] = target: T1, EP3 receptor; experiment: [3H]-PGE2 binding assay (EP3 competition binding); settings: read-out: [3H]-PGE2 Binding Ki
How it was run: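 Scintillation-bead competition binding with EP3 membranes (2 μg/well), 2 nM [3H]-PGE2, 0.1% DMSO, in 50 mM Tris, 10 mM MgCl2, 1 mM EDTA, pH 7.4.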

| IC50 (EP3 receptor [1]) [nM] | Ki (EP3 receptor [2]) [nM] | SMILES | reversal of suppression of glucose stimulate insulin secretion (GSIS) by sulprostone (Sprague Dawley rats) |
| --- | --- | --- | --- |
| 540 | 164 | CC(C)C(Cc1ccc(-c2ccc3cccc(F)c3c2)[nH]c1=O)c1nnn[nH]1 (centres unmarked) [compound 270, 6-(8-Fluoronaphthalen-2-yl)-3-(3-methyl-2-(1H-tetrazol-5-yl)butyl)pyridin-2(1H)-one] |  |
| 385 | 53 | CC(C)C(Cc1ccc(-c2ccc3cccc(F)c3c2)[nH]c1=O)c1ncc[nH]1 (centres unmarked) [compound 307, 3-(2-(1H-Imidazol-2-yl)-3-methylbutyl)-6-(8-fluoronaphthalen-2-yl)pyridin-2(1H)-one] |  |
| 931 | 69 | CC(C)C(CC(=O)NS(C)(=O)=O)c1ccc(-c2ccc3ccccc3c2)[nH]c1=O (centres unmarked) [compound 250, 4-methyl-N-(methylsulfonyl)-3-(6-(naphthalen-2-yl)-2-oxo-1,2-dihydropyridin-3-yl)pentanamide] |  |
| 4570 | 343 | CC(C)C(O)(C(N)=O)c1ccc(-c2ccc3c(c2)OCCN3C)[nH]c1=O (centres unmarked) [compound 225, 2-hydroxy-3-methyl-2-(6-(4-methyl-3,4-dihydro-2H-benzo[b][1,4]oxazin-7-yl)-2-oxo-1,2-dihydropyridin-3-yl)butanamide] |  |
| 12 | 4 | CO/N=C1\NC(=O)C(c2ccc(-c3ccc4cccc(F)c4c3)[nH]c2=O)(C(C)C)N1 (centres unmarked) [compound 237, (Z)-6-(8-fluoronaphthalen-2-yl)-3-(4-isopropyl-2-(methoxyimino)-5-oxoimidazolidin-4-yl)pyridin-2(1H)-one] |  |
| 17 | 6 | CC(C)C(N/C(N)=N/C#N)c1ccc(-c2ccc3cccc(F)c3c2)[nH]c1=O (centres unmarked) [compound 268, (E)-2-cyano-1-(1-(6-(8-fluoronaphthalen-2-yl)-2-oxo-1,2-dihydropyridin-3-yl)-2-methylpropyl)quanidine] |  |
| 2400 | 771 | NC(=O)C1(c2ccc(-c3ccc4ccccc4c3)[nH]c2=O)CC=NN1 (centres unmarked) [compound 247, 5-(6-(naphthalen-2-yl)-2-oxo-1,2-dihydropyridin-3-yl)-4,5-dihydro-1H-pyrazole-5-carboxamide] |  |
| 1910 | 116 | CC1(c2ccc(-c3ccc4ccccc4c3)[nH]c2=O)CNC(NS(C)(=O)=O)=N1 (centres unmarked) [compound 290, N-[4-methyl-4-[6-(naphthalen-2-yl)-2-oxo-1,2-dihydropyridin-3-yl]-4,5-dihydro-1H-imidazol-2-yl]methanesulfonamide] |  |
| 142 | 12 | CC(C)C(C(=O)NCCOCCOCCN(C)C)c1ccc(-c2ccc3cccc(F)c3c2)[nH]c1=O (centres unmarked) [compound 229, N-(2-(2-(2-(dimethylamino)ethoxy)ethoxy)ethyl)-2-(6-(8-fluoronaphthalen-2-yl)-2-oxo-1,2-dihydropyridin-3-yl)-3-methylbutanamide] |  |
| 115 | 9 | CC(C)C(O)(CC(N)=O)c1ccc(-c2ccc3cccc(F)c3c2)[nH]c1=O (centres unmarked) [compound 255, 3-(6-(8-fluoronaphthalen-2-yl)-2-oxo-1,2-dihydropyridin-3-yl)-3-hydroxy-4-methylpentanamide] |  |
| 736 | 28 | CC(C)C(NC(=O)NCCN(C)C)c1ccc(-c2ccc3cccc(F)c3c2)[nH]c1=O (centres unmarked) [compound 266, 1-(2-(dimethylamino)ethyl)-3-(1-(6-(8-fluoronaphthalen-2-yl)-2-oxo-1,2-dihydropyridin-3-yl)-2-methylpropyl)urea] |  |

The remaining lines, values behind:

| SMILES | IC50 (EP3 receptor [1]) [nM] | Ki (EP3 receptor [2]) [nM] | reversal of suppression of glucose stimulate insulin secretion (GSIS) by sulprostone (Sprague Dawley rats) |
| --- | --- | --- | --- |
| CC(C)C(/C=C1\OC(=O)NC1=O)c1ccc(-c2ccc3cccc(F)c3c2)[nH]c1=O (racemic) [Compound #62, (Z)-5-(2-(6-(8-fluoronaphthalen-2-yl)-2-oxo-1,2-dihydropyridin-3-yl)-3-methylbutylidene)oxazolidine-2,4-dione] |  |  | reverse suppression of glucose stimulate insulin secretion (GSIS) by sulprostone |
| CC(C)C(/C=C1/C(=O)NC(=O)N1C)c1ccc(-c2ccc3cccc(F)c3c2)[nH]c1=O (centres unmarked) [Compound #80, 5-(2-(6-(8-fluoronaphthalen-2-yl)-2-oxo-1,2-dihydropyridin-3-yl)-3-methylbutylidene)-1-methylimidazolidine-2,4-dione] | 11 | 6 |  |
| O=C1NC(=O)/C(=C/C(c2ccc(-c3ccc4cccc(F)c4c3)[nH]c2=O)C2CCCC2)O1 (centres unmarked) [compound 92, (Z)-5-(2-cyclopentyl-2-(6-(8-fluoronaphthalen-2-yl)-2-oxo-1,2-dihydropyridin-3-yl)ethylidene)oxazolidine-2,4-dione] | 7 | 9 |  |
| CCn1ncc2c(F)cc(-c3[nH]c(=O)c(C(/C=C4\OC(=O)NC4=O)C(C)C)cc3C)cc21 (centres unmarked) [compound 111, (Z)-5-(2-(6-(1-ethyl-4-fluoro-1H-indazol-6-yl)-5-methyl-2-oxo-1,2-dihydropyridin-3-yl)-3-methylbutylidene)oxazolidine-2,4-dione] | 585 | 162 |  |
| CCN1CCOc2ccc(-c3ccc(C(CC)(CC)CC4OC(=O)NC4=O)c(=O)[nH]3)cc21 (centres unmarked) [compound 44, 5-(2-ethyl-2-(6-(4-ethyl-3,4-dihydro-2H-benzo[b][1,4]oxazin-6-yl)-2-oxo-1,2-dihydropyridin-3-yl)butyl)oxazolidine-2,4-dione] | 505 | 93 |  |
| CC(C)C(C(=O)NC1CCSCC1)c1ccc(-c2ccc3cccc(F)c3c2)[nH]c1=O (centres unmarked) [compound 183, 2-(6-(8-fluoronaphthalen-2-yl)-2-oxo-1,2-dihydropyridin-3-yl)-3-methyl-N-(tetrahydro-2H-thiopyran-4-yl)butanamide] | 1 | 3 |  |
| Cc1cc(C(c2ncc[nH]2)C(C)C)c(=O)[nH]c1-c1ccc2cccc(F)c2c1 (centres unmarked) [compound 82, 3-(1-(1H-imidazol-2-yl)-2-methylpropyl)-6-(8-fluoronaphthalen-2-yl)-5-methylpyridin-2(1H)-one] | 137 | 23 |  |
| CCn1ncc2c(Cl)cc(-c3ccc(C(/C=C4\OC(=O)NC4=O)C(C)C)c(=O)[nH]3)cc21 (centres unmarked) [compound 116, (Z)-5-(2-(6-(4-chloro-1-ethyl-1H-indazol-6-yl)-2-oxo-1,2-dihydropyridin-3-yl)-3-methylbutylidene)oxazolidine-2,4-dione] | 76 | 8 |  |
| O=C1NC(=O)/C(=C/C(c2ccc(-c3ccc4cccc(F)c4c3)[nH]c2=O)C2CC2)O1 (centres unmarked) [compound 103, (Z)-5-(2-cyclopropyl-2-(6-(8-fluoronaphthalen-2-yl)-2-oxo-1,2-dihydropyridin-3-yl)ethylidene)oxazolidine-2,4-dione] | 33 | 22 |  |
| CC(C)C(CC1OC(=O)NC1=O)c1ccc(-c2ccc3cccc(F)c3c2)[nH]c1=O (centres unmarked) [compound 77] | 60 | 16 |  |
| CCn1ncc2c(F)cc(-c3ccc(C(CC)(CC)c4ncc[nH]4)c(=O)[nH]3)cc21 [compound 31, 6-(1-ethyl-4-fluoro-indazol-6-yl)-3-[1-ethyl-1-(1H-imidazol-2-yl)propyl]-1H-pyridin-2-one] | 482 | 37 |  |
| CCN1C(=O)COc2c(F)cc(-c3ccc(C(CN4CCS(=O)(=O)CC4)C(C)C)c(=O)[nH]3)cc21 (centres unmarked) [Compound #128, 4-{2-[6-(4-ethyl-8-fluoro-3-oxo-2H-1,4-benzoxazin-6-yl)-2-oxo-1H-pyridin-3-yl]-3-methylbutyl},4-thiomorpholine-1,1-dione] | 18000 | 154 |  |
| CC1(c2ccc(-c3ccc4ccccc4c3)[nH]c2=O)N=CNC1=O (centres unmarked) [compound 222, 3-(4-methyl-5-oxo-4,5-dihydro-1H-imidazol-4-yl)-6-(naphthalen-2-yl)-1,2-dihydropyridin-2-one] | 4270 | 327 |  |
